Measured values published in patent publication US5602239A, “5-O-desosaminylerythronolide derivatives” (Taisho Pharmaceutical Co., Ltd., priority 1993, dated 1997).
Converted amounts (≈) assume the structure as drawn.

Experiments:
Type in all cases: cell-based
[1] = tested on: S. aureus B1; assay: In vitro antibacterial activity (MIC), S. aureus B1; conditions: Staphylococcus aureus, sensitive disc media, Japan Society of Chemotherapy method, read-out: MIC value (Minimum Inhibitory Concentration)
Description: (§1) The in vitro antibacterial activity of the compound of the present invention obtained in Example 9 against various experimental bacteria was measured using sensitive disc media (produced by Eiken Chemical Co.) according to the MIC measuring method specified by the Japan Society of Chemotherapy. 6-O-Methylerythromycin A was used as a comparative drug.

[2] = tested on: S. aureus Smith 4; assay: In vitro antibacterial activity (MIC), S. aureus Smith 4; conditions: Staphylococcus aureus, SMITH4, sensitive disc media, Japan Society of Chemotherapy method, read-out: MIC value (Minimum Inhibitory Concentration)
Description: as §1

[3] = tested on: S. epidermides IID 866; assay: In vitro antibacterial activity (MIC), S. epidermides IID 866; conditions: sensitive disc media, Japan Society of Chemotherapy method, read-out: MIC value (Minimum Inhibitory Concentration)
Description: as §1

[4] = tested on: S. aureus 209P-JC; assay: In vitro antibacterial activity (MIC), S. aureus 209P-JC; conditions: Staphylococcus aureus, sensitive disc media, Japan Society of Chemotherapy method, read-out: MIC value (Minimum Inhibitory Concentration)
Description: as §1

[5] = tested on: E. faecalis CSJ 1212; assay: In vitro antibacterial activity (MIC), E. faecalis CSJ 1212; conditions: Enterococcus faecalis, CSJ1212, sensitive disc media, Japan Society of Chemotherapy method, read-out: MIC value (Minimum Inhibitory Concentration)
Description: as §1

CC[C@H]1OC(=O)[C@H](C)[C@@H](O[C@H]2C[C@@](C)(OC)[C@@H](O)[C@H](C)O2)[C@H](C)[C@@H](O[C@@H]2O[C@H](C)C[C@H](N(C)C)[C@H]2O)[C@](C)(OC)C[C@@H](C)C(=O)[C@H](C)[C@@H](O)[C@]1(C)O [Comparative drug, 6-O-Methylerythromycin A]
MIC [1]: > 100 µg/mL | MIC [2]: 0.1 µg/mL (≈ 0.134 µM) | MIC [3]: 0.1 µg/mL (≈ 0.134 µM) | MIC [4]: 0.1 µg/mL (≈ 0.134 µM) | MIC [5]: 0.78 µg/mL (≈ 1.04 µM)

CC[C@H]1OC(=O)[C@H](C)[C@@H](Oc2ccc([N+](=O)[O-])cc2[N+](=O)[O-])[C@H](C)[C@@H](O[C@@H]2O[C@H](C)C[C@H](N(C)C)[C@H]2O)[C@](C)(OC)C[C@@H](C)C(=O)[C@H](C)[C@H]2OC(=O)O[C@@]21C [Example 9, 3-O-(2,4-dinitro)phenyl-5-O-desosaminyl-6-O-methylerythronolide A 11,12-cyclic carbonate]
MIC [1]: 0.78 µg/mL (≈ 0.998 µM) | MIC [2]: 0.1 µg/mL (≈ 0.128 µM) | MIC [3]: 0.1 µg/mL (≈ 0.128 µM) | MIC [4]: 0.1 µg/mL (≈ 0.128 µM) | MIC [5]: 0.2 µg/mL (≈ 0.256 µM)
